In ChEMBL document CHEMBL1153384, “Synthesis, antimalarial activity, and preclinical pharmacology of a novel series of 4'-fluoro and 4'-chloro analogues of amodiaquine. Identification of a suitable "back-up" compound for N-tert-butyl isoquine” (J Med Chem, 2009):

Key:
[1] = tested on: Plasmodium falciparum; experiment: Antimalarial activity against chloroquine-resistant Plasmodium falciparum TM6; format: functional, organism-based
[2] = tested on: Plasmodium falciparum; experiment: Antimalarial activity against chloroquine-sensitive Plasmodium falciparum HB3; format: functional, organism-based
[3] = tested on: Plasmodium falciparum; experiment: Antimalarial activity against […] Plasmodium falciparum PH3; format: functional, organism-based
[4] = tested on: Plasmodium falciparum; experiment: Antimalarial activity against chloroquine-resistant Plasmodium falciparum TM4; format: functional, organism-based
[5] = tested on: Plasmodium falciparum; experiment: Antimalarial activity against […] Plasmodium falciparum Dd2; format: functional, organism-based
[6] = Partition coefficient, log P of the compound; format: physicochemical; details: octanol/water
[7] = tested on: Liver; experiment: Biodistribution in cannulated Wistar rat liver assessed as [3H]labeled drug level at 54 umol/kg, iv after 5 hrs; format: ADME, organism-based; details: in vivo
[8] = tested on: Zone of skin; experiment: Biodistribution in cannulated Wistar rat skin assessed as [3H]labeled drug level at 54 umol/kg, iv after 5 hrs; format: ADME, organism-based; details: in vivo
[9] = tested on: Kidney; experiment: Biodistribution in cannulated Wistar rat kidney assessed as [3H]labeled drug level at 54 umol/kg, iv after 5 hrs; format: ADME, organism-based; details: in vivo
[10] = tested on: Rattus norvegicus; experiment: Drug elimination in Wistar rat assessed as [3H]labeled drug level at 54 umol/kg, iv after 24 hrs; format: ADME, organism-based; details: in vivo
[11] = tested on: Liver; experiment: Biodistribution in Wistar rat liver assessed as [3H]labeled drug level at 54 umol/kg, iv after 24 hrs; format: ADME, organism-based; details: in vivo
[12] = tested on: Lung; experiment: Biodistribution in Wistar rat lung assessed as [3H]labeled drug level at 54 umol/kg, iv after 24 hrs; format: ADME, organism-based; details: in vivo
[13] = tested on: Rattus norvegicus; experiment: Biodistribution in Wistar rat assessed as remaining [3H]labeled drug level at 54 umol/kg, iv after 5 hrs; format: ADME, organism-based; details: in vivo
[14] = tested on: Rattus norvegicus; experiment: Biodistribution in Wistar rat assessed as remaining [3H]labeled drug level at 54 umol/kg, iv after 48 hrs; format: ADME, organism-based; details: in vivo
[15] = tested on: Rattus norvegicus; experiment: Biodistribution in Wistar rat assessed as remaining [3H]labeled drug level at 54 umol/kg, iv after 168 hrs; format: ADME, organism-based; details: in vivo
[16] = tested on: Rattus norvegicus; experiment: Metabolic stability in Wistar rat assessed as [3-(tert-Butylamino-methyl)-4-fluoro-phenyl]-(7-chloro-1-oxy-quinolin-4-yl)-amine level at 54 umol/kg, iv administered as [3H]labeled drug after 5 hrs; format: ADME, organism-based; details: in vivo
[17] = tested on: Rattus norvegicus; experiment: Metabolic stability in Wistar rat assessed as (2S,3S,4S,5R,6S)-6-{2-[5-(7-Chloro-quinolin-4-ylamino)-2-fluoro-benzylamino]-2-methyl-propionyloxy}-3,4,5-trihydroxy-tetrahydro-pyran-2-carboxylic acid level at 54 umol/kg, iv administered as [3H]labeled drug after 5 hrs; format: ADME, organism-based; details: in vivo
[18] = Clearance in iv dosed mouse; format: ADME, organism-based; details: in vivo
[19] = Clearance in iv dosed rat; format: ADME, organism-based; details: in vivo
[20] = Oral bioavailability in mouse; format: ADME, organism-based; details: in vivo
[21] = Oral bioavailability in rat; format: ADME, organism-based; details: in vivo
[22] = Elimination half life in mouse at 10 mg/kg, po administered as single dose; format: ADME, organism-based; design: dose 10 mg/kg, route oral; details: in vivo, read-out: beta t1/2 (converted)
[23] = biological target: T1, Cytochrome P450 1A2 (Homo sapiens, UniProt P05177); experiment: Inhibition of human CYP1A2; format: ADME
T1 sequence (P05177 whole entry): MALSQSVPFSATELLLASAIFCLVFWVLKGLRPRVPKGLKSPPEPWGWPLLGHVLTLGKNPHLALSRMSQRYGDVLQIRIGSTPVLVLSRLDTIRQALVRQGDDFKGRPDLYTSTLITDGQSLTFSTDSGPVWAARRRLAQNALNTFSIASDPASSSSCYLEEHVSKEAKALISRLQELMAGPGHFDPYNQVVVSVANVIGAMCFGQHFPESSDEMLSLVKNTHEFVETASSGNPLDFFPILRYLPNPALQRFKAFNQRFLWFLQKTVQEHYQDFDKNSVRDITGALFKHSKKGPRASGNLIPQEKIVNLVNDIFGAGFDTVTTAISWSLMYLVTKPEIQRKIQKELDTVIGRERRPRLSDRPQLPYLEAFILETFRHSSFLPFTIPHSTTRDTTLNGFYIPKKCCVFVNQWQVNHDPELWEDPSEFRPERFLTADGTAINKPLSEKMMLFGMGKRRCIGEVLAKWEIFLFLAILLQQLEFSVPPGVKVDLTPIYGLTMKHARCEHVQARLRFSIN

[24] = biological target: T2, Cytochrome P450 2C8 (Homo sapiens, UniProt P10632); experiment: Inhibition of human CYP2C8; format: ADME
T2 sequence (P10632 whole entry): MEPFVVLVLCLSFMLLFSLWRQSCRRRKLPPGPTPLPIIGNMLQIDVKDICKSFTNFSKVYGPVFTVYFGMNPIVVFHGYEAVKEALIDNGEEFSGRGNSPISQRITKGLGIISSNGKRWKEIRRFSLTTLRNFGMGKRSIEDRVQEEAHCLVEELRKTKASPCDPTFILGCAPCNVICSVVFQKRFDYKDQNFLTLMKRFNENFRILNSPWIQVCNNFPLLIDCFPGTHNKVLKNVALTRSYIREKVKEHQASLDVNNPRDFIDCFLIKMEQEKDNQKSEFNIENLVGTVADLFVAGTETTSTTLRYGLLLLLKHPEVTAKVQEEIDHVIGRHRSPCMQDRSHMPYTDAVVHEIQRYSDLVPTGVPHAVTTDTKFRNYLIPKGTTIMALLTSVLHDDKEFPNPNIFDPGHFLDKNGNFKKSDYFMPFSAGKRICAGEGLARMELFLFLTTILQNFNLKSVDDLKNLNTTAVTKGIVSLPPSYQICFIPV

[25] = biological target: Cytochrome P450 2C9 (Homo sapiens, UniProt P11712); experiment: Inhibition of human CYP2C9; format: ADME
[26] = Toxicity against Wistar rat hepatocytes after 6 hrs by trypan blue exclusion method; format: cell-based, Hepatocyte; details: read-out: TC50
[27] = Toxicity in po dosed mouse assessed as drug level causing no observed adverse effects administered as single dose; format: organism-based; details: in vivo, read-out: Activity
[28] = tested on: Mus musculus; experiment: Toxicity in po dosed mouse assessed as induction of hepatotoxicity at drug dose above no observed adverse effects level; format: organism-based; details: in vivo
[29] = tested on: Mus musculus; experiment: Toxicity in po dosed mouse assessed as induction of hematological toxicity at drug dose above no observed adverse effects level; format: organism-based; details: in vivo
[30] = Distribution coefficient, log D at pH 7.4; details: octanol/water
[31] = tested on: Plasmodium falciparum; experiment: Antimalarial activity against chloroquine-resistant Plasmodium falciparum V1/S; format: functional, organism-based; details: V1S
[32] = tested on: Plasmodium falciparum; experiment: Antimalarial activity against chloroquine-resistant Plasmodium falciparum J164; format: functional, organism-based
[33] = tested on: Plasmodium berghei; experiment: Antimalarial activity as reduced parasitaemia against Plasmodium berghei ANKA infected CD1 mice (Mus musculus) perorally dosed daily over 4 days; format: functional; details: po, 96 h
[34] = tested on: Plasmodium yoelii; experiment: Antimalarial activity as reduced parasitaemia against Plasmodium yoelii 17X infected CD1 mice (Mus musculus) perorally dosed daily for 4 days; format: functional; details: po, 96 h
[35] = tested on: Heme; experiment: Binding affinity to heme assessed as binding constant for stepwise binding of 2 equivalent of drug to 1 molecule of heme in presence of 40% DMSO by UV-visible spectroscopy
[36] = tested on: Heme; experiment: Binding affinity to heme assessed as binding constant for stepwise binding of 2 molecules of heme to 1 equivalent of drug in presence of 40% DMSO by UV-visible spectroscopy
[37] = tested on: Plasmodium yoelii; experiment: Antimalarial activity as minimal concentration for parasite elimination at day 23 against Plasmodium yoelii 17X intravenously inoculated CD1 mice (Mus musculus) dosed 1 hrs post infection then daily for 4 days

Sequence of Cytochrome P450 2C9 (P11712 whole entry): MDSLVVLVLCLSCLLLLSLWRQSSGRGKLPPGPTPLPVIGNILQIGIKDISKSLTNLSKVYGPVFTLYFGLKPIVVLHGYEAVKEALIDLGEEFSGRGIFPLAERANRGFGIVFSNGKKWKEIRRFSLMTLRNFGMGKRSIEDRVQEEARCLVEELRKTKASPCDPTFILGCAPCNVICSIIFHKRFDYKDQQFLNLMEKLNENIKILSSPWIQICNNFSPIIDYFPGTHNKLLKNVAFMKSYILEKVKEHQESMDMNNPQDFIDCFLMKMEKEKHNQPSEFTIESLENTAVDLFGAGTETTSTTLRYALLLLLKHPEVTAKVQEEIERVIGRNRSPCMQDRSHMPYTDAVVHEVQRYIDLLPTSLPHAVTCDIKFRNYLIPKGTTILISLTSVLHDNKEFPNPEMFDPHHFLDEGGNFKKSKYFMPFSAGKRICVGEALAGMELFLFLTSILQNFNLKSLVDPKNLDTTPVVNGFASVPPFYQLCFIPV

## CC(C)(C)NCc1cc(Nc2ccnc3cc(Cl)ccc23)ccc1F
[1]
  IC50: 21.9 nM
[2]
  IC50: 14.6 nM
[3]
  IC50: 25.8 nM
[4]
  IC50: 17.3 nM
[5]
  IC50: 22.4 nM
[6]
  logP: 4.74
[7]
  Drug uptake: 17.49 %ID
[8]
  Drug uptake: 12.44 %ID
[9]
  Drug uptake: 3.97 %ID
[10]
  Activity: 51.36%
[11]
  Drug uptake: 6.57 %ID
[12]
  Drug uptake: 1.17 %ID
[13]
  Activity: 38.54%
[14]
  Activity: 72.79%
[15]
  Activity: 1.22%
[16]
  Activity: 3.55%
[17]
  Activity: 9.95%
[18]
  clearance: 40.4 mL/min/kg
[19]
  clearance: 35 mL/min/kg
[20]
  bioavailability: 37%
[21]
  bioavailability: 100%
[22]
  half-life: 7 h
[23]
  IC50: 8800 nM
[24]
  IC50: 9800 nM
[25]
  IC50: 52000 nM
[26]
  CC50 at 6 h: 385000 nM
[27]
  NOAEL: 300 mg/kg
[28]
  Activity: Toxic
[29]
  Activity: Toxic
[30]
  logD: 2.4
[31]
  IC50: 26.1 nM
[32]
  IC50: 29.2 nM
[33]
  ED50: 5.3 mg/kg
  ED90: 12.4 mg/kg
[34]
  ED50: 7.7 mg/kg
  ED90: 10.6 mg/kg
[35]
  log Ks: 5.45
[36]
  log Ks: 5.68
[37]
  Activity: >40 mg/kg
